From US9222137B2, “Method for monitoring minimal residual hairy cell leukemia” (Trovagene, Inc., priority 2011, dated 2015)
“Also recorded” adds a separate entry of the source.

Legend:
[1] = system: phosphorylated MEK and ERK in purified primary HCL cells (BRAF V600E); assay: Western blot analysis of MEK and ERK phosphorylation in purified HCL cells incubated in vitro with BRAF inhibitor; type: cell-based, human; details: primary leukemic HCL cells; 250 nM, 500 nM or 1000 nM (≦1 μM); 2, 6 and 24 h incubation; vs vehicle (DMSO)
Description: Fresh leukemic cells purified from the peripheral blood of 5 patients with HCL were seeded in triplicate (2 to 3×10^5 cells/well, depending on the patient) in 96-well flat-bottom plates, and left recovering by overnight incubation at 37° C. and 5% CO2 in cell culture medium (RPMI1640 with 10% fetal bovine serum, glutamine and antibiotics). […] DMSO (the drug vehicle) was added in parallel wells as control. Cells were then harvested at different time points (2 h, 6 h and 24 h), washed 3 times in PBS, lysed in Laemmli sample buffer and boiled at 95° C. for 5 minutes. […] Protein lysates (6 to 7.5×10^4 fresh cell equivalent, depending on the patient; 2×10^5 frozen cell equivalent) were separated by SDS-polyacrylamide gel electrophoresis (SDS-PAGE) on pre-cast electrophoresis gels (12% Resolving gel cat. 456-1043 or Any kD Resolving Gel cat. 456-9036, Biorad), transferred to a 0.45 um pore size nitrocellulose transfer membrane (Whatman GmbH, Dassel, Germany), and probed with specific primary antibodies directly or after stripping (with Restore Western Blot Stripping Buffer, Pierce/Thermo Scientific cat. 21059). The anti-phospho-ERK1/2 (clone D13.14.4E; 1:2000 dilution), anti-phospho-MEK1/2 (clone 166F8; 1:1000 dilution), anti-ERK1/2 (clone 137F5; 1:1000 dilution) rabbit monoclonal antibodies and the anti-MEK1/2 (clone L38C12; 1:1000 dilution) mouse monoclonal antibody were all from Cell Signaling Technology. Upon incubation with horseradish peroxidase-conjugated secondary antibodies (GE Healthcare Lifesciences, Uppsala, Sweden), polypeptides were visualized using an enhanced chemiluminescence (ECL) western blot detection kit according to the manufacturer's instruction (GE Healthcare Lifesciences). Protein lysates (3×10^4 to 2×10^5 cell equivalent, depending on the experiment) from either serum-starved (45 min at 37° C. and 5% CO2 in RPMI1640) or unstarved human leukemic T-cell line Jurkat cells were used as negative and positive control, respectively, for ERK1/2 and MEK1/2 phosphorylation.
Membranes were probed with antibodies against phospho-ERK, phosphoMEK, total ERK and total MEK, as indicated on the far right. Protein lysates from either serum-starved or unstarved human leukemic Jurkat T cell line cells were used as negative (−) and positive (+) control, respectively, for ERK and MEK phosphorylation.

hairy cell leukemia = assay: Case report: index HCL patient treated with pentostatin; type: in vivo, human
Excerpt: Splenomegaly was present. […] At immunohistochemistry, leukemic cells were positive for CD20, DBA44, CD68 and Annexin-A1; expression of CD20, CD11c, CD25 and CD103 was documented by flow cytometry.

SMILES: CCCS(=O)(=O)Nc1ccc(F)c(C(=O)c2c[nH]c3ncc(Cl)cc23)c1F [PLX-4720]
- phosphorylation of ERK (phospho-ERK, Western blot) [1]: dose-dependent dephosphorylation; also recorded: marked decrease
- phosphorylation of MEK (phospho-MEK, Western blot) [1]: dose-dependent dephosphorylation; also recorded: marked decrease

SMILES: OC[C@H]1O[C@@H](n2cnc3c2NC=NC[C@H]3O)C[C@@H]1O [pentostatin]
- clinical outcome after therapy (hairy cell leukemia): complete hematological remission
